In patent US7384961B2, “Saturated and unsaturated heteroarylcycloalkylmethyl amines as anti-depressants” (priority 2002, dated 2008):
Structures can show the parent of a compound that is named as a salt. Where two headings read alike, the source gives them in different places.

Tests used:
5-HT re-uptake = molecular target: T1, 5-HT re-uptake (Rattus norvegicus, UniProt P31652); experiment: Inhibition of 5-HT re-uptake in rat brain synaptosomes (P2 fraction, medulla + pons); format: biochemical; conditions: for inhibition at 10 µM: 10 μmol/l
T1 construct: synaptosomes are freshly isolated from rat brain areas; from tissue; host or cells: rat brain synaptosomes (P2 fraction), medulla + pons region, male rats
T1 sequence (P31652 whole entry): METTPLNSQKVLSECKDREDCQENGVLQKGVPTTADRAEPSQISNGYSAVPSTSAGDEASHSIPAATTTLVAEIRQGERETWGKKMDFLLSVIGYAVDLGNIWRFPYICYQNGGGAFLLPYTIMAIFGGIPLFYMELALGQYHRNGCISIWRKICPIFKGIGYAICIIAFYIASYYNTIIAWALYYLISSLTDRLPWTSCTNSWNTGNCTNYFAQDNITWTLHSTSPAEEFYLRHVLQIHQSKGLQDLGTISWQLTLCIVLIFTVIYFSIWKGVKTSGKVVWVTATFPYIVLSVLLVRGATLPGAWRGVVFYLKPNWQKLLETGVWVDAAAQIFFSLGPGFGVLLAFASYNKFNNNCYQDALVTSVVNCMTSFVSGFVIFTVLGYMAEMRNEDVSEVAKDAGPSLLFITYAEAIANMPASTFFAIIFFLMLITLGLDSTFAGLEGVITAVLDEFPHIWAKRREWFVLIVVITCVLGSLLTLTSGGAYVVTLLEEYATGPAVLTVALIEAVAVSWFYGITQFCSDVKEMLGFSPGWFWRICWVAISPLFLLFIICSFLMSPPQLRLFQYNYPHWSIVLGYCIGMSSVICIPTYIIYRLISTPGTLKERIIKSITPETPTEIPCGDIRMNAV
From the text: (§1) a) Investigations of the Inhibition of the Re-uptake of 5-HT and NA
(§2) In order to be able to carry out these in vitro studies, synaptosomes are freshly isolated from rat brain areas. […] These vesicular particles are isolated from the hypothalamus for the NA re-uptake and from the medulla +pons region of male rat brains for the 5-HT re-uptake.
(§3) The IC50 values were obtained with the aid of the “Figure P” computer program (version 6.0, Biosoft, Cambridge, England). […] The “Ligand” computer program (version 4, Biosoft, England) was used to obtain KD values.

NA re-uptake = molecular target: T2, NA re-uptake (Rattus norvegicus, UniProt Q63380); experiment: Inhibition of NA re-uptake in rat brain synaptosomes (P2 fraction, hypothalamus); format: biochemical; conditions: for inhibition at 10 µM: 10 μmol/l
T2 construct: synaptosomes are freshly isolated from rat brain areas; from tissue; host or cells: rat brain synaptosomes (P2 fraction), hypothalamus
T2 sequence (Q63380 1-617): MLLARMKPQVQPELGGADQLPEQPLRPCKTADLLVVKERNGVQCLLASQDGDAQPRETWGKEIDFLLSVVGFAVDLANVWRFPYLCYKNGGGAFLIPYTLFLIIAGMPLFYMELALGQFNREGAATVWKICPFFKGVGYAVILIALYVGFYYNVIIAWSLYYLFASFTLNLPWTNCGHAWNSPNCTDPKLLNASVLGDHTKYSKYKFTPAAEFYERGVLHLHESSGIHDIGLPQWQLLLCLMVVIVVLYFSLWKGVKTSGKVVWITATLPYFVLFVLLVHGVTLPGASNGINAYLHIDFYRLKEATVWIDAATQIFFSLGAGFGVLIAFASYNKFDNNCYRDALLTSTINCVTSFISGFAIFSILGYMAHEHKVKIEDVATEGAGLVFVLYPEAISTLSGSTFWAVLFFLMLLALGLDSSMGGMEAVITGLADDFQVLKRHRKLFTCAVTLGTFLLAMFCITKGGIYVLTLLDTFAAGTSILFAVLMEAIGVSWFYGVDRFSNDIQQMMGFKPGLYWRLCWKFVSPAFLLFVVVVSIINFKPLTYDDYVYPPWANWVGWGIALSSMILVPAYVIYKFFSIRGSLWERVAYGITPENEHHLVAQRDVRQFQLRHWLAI
From the text: as §1, §2, §3

mice = experiment: Formalin test in mice (analgesic action, chronic pain component); format: in vivo; conditions: for ED50: Mus musculus, iv, read-out: Inhibition of the nociceptive behaviour versus control, ED50 value
Procedure: b) Investigations of the Analgesic Actions in the Formalin Test in Mice
The formalin test (Dubuisson, D. and Dennis, S. G., 1977, Pain, 4, 161-174) represents a model of acute and chronic pain. The chronic pain component was evaluated in the investigations described here.
A biphase nociceptive reaction which is recorded by observing three behaviour patterns which can be clearly differentiated from one another is induced in freely mobile test animals by a single formalin injection into the dorsal side of a hind paw.
Formalin is administered subcutaneously into the dorsal side of the right hind paw of each animal in a volume of 20 μl and a concentration of 1%.
The specific changes in behaviour which differ from the normal behaviour (score 0), such as raising (score 1) and shaking the paw (score 2) and biting and licking reactions (score 3), are observed and recorded continuously at component intervals of 3 min for up to 60 min after the administration of formalin. The changes in behaviour are weighted in different ways (score 0-3) and a pain rate (PR) is calculated using the following formula: PR=[(T0×0)+(T1×1)+(T2×2)+(T3×3)]/180.
The group size is 10 animals (n=10).
On the basis of the PR calculations, the action of the substance was determined as the change from a control in percent. The ED50 was determined by means of regression analysis.

Row | SMILES | inhibition at 10 µM (5-HT re-uptake) | inhibition at 10 µM (NA re-uptake) | other results
1 | COc1cncc([C@H]2CCCCCC[C@H]2CN(C)C)c1 (relative stereo) [Example 72, cis-[2-(5-Methoxy-pyridin-3-yl)-cyclooctylmethyl] -dimethyl-amine hydrochloride] | 60% | 53% | –
2 | CN(C)C[C@@H]1CCCC[C@@H]1c1cccnc1 (relative stereo) [Example 6, cis-Dimethyl-(2-pyridin-3-yl-cyclohexylmethyl)amine hydrochloride] | 94% | 25% | –
3 | CN(CC1=C(c2cccnc2)CCCC1)Cc1ccccc1.Cl [Example 10, Benzylmethyl-(2-pyridin-3-yl-cyclohex-1-enylmethyl)amine hydrochloride] | – | – | Inhibition of the nociceptive behaviour versus control; % inhibition (mice; 10 mg/kg i.v., mice): 66.3%
4 | COc1cncc(C2CCCCCC2CN(C)C)c1 (stereo not drawn) [Example 60, [2-(5-Methoxy-pyridin-3-yl)-cycloheptylmethyl] -dimethyl-amine hydrochloride] | 75% | 30% | –
5 | CN(C)CC1CCC=C1c1cccnc1 (stereo not drawn) [Example 29, Dimethyl-(2-pyridin-3-yl-cyclopent-2-enylmethyl)-amine hydrochloride] | 69% | 64% | –
6 | COc1cncc(C2=CCCCC2CN(C)C)c1 (stereo not drawn) [Example 55, [2-(5-Methoxy-pyridin-3-yl)-cyclohex-2-enylmethyl]-dimethyl-amine hydrochloride] | 67% | 34% | –
7 | CN(C)CC1CCCCCC=C1c1cccnc1 (stereo not drawn) [Example 33, Dimethyl-(2-pyridin-3-yl-cyclooct-2-enylmethyl)-amine hydrochloride] | 74% | 50% | –
8 | CN(C)CC1=C(c2cccnc2)CCCCCC1.Cl [Example 32, Dimethyl-(2-pyridin-3-yl-cyclooct-1-enylmethyl)-amine hydrochloride] | 78% | 55% | ED50 (mice; mice, formalin test): 2.77 mg/kg
9 | CN(C)C[C@@H]1CCCCC[C@@H]1c1cccnc1 (relative stereo) [Example 26, cis-Dimethyl-(2-pyridin-3-yl-cycloheptylmethyl)-amine hydrochloride] | 82% | 28% | –
10 | CN(C)CC1=C(c2ccncc2)CCCCC1 [Example 38, Dimethyl-(2-pyridin-4-yl-cyclohept-1-enylmethyl)-amine hydrochloride] | 76% | 73% | –
11 | CN(C)CC1CCCC1c1cccnc1.Cl (stereo not drawn) [Example 31, Dimethyl-(2-pyridin-3-yl-cyclopentylmethyl)-amine hydrochloride] | 70% | 8% | Inhibition of the nociceptive behaviour versus control; % inhibition (mice; 10 mg/kg i.v., mice): 89.7%
12 | CN(C)CC1CCCCCC=C1c1ccc(Cl)nc1 (stereo not drawn) [Example 71, [2-(6-Chloro-pyridin-3-yl)-cyclooct-2-enylmethyl] -dimethyl-amine hydrochloride] | 74% | 77% | –
13 | COc1cncc(C2=CCCCCCC2CN(C)C)c1 (stereo not drawn) [Example 73, [2-(5-Methoxy-pyridin-3-yl)-cyclooct-2-enylmethyl] -dimethyl-amine hydrochloride] | 89% | 55% | –
14 | CN(C)CC1=C(c2ccc(Cl)nc2)CCCC1 [Example 49, [2-(6-Chloro-pyridin-3-yl)-cyclohex-1-enylmethyl]-dimethyl-amine hydrochloride] | 55% | 67% | –
15 | CN(C)C[C@@H]1CCCCC[C@H]1c1cccnc1 (relative stereo) [Example 27, trans-Dimethyl-(2-pyridin-3-yl-cycloheptylmethyl)-amine hydrochloride] | 88% | 54% | –
16 | COc1cncc(C2CCCCC2CN(C)C)c1 (stereo not drawn) [Example 62, [2-(5-Methoxy-pyridin-3-yl)-cyclohexylmethyl] -dimethyl-amine hydrochloride] | 77% | 13% | –

Row | SMILES | inhibition at 10 µM (5-HT re-uptake) | inhibition at 10 µM (NA re-uptake) | other results
17 | COc1cncc(C2=C(CN(C)C)CCCCCC2)c1 [Example 74, [2-(5-Methoxy-pyridin-3-yl)-cyclooct-1-enylmethyl] -dimethyl-amine hydrochloride] | 72% | 56% | –
18 | CN(C)CC1=C(c2cccnc2)CCCCC1.Cl [Example 23, Dimethyl-(2-pyridin-3-yl-cyclohept-1-enylmethyl)-amine hydrochloride] | 86% | 50% | ED50 (mice): 2.44 mg/kg
19 | CN(C)CC1CCCCC=C1c1ccc(Cl)nc1 (stereo not drawn) [Example 48, [2-(6-chloro-pyridin-3-yl)-cyclohept-2-enylmethyl]-dimethyl-amine hydrochloride] | 81% | 82% | –
20 | CN(C)CC1CCCCC1(Cl)c1ccc(Cl)nc1 (stereo not drawn) [Example 15, [2-Chloro-2-(6-chloro-pyridin-3-yl)-cyclohexylmethyl]-dimethyl-amine hydrochloride] | 51% | 53% | –
21 | COc1cncc([C@@H]2CCCCCC[C@H]2CN(C)C)c1 (relative stereo) [Example 70, trans-[2-(5-Methoxy-pyridin-3-yl)-cyclooctylmethyl]-dimethyl-amine and the corresponding hydrochloride] | – | – | 5-HT re-uptake inhibition (10 μmol/l) (5-HT re-uptake): 89%; NA re-uptake inhibition (10 μmol/l) (NA re-uptake): 52%
22 | CN(C)CC1CCCCC=C1c1cccnc1.Cl (stereo not drawn) [Example 24, Dimethyl-(2-pyridin-3-yl-cyclohept-2-enylmethyl)-amine hydrochloride] | 67% | 19% | ED50 (mice): 5.4 mg/kg
23 | CN(C)C[C@@H]1CCCC[C@H]1c1cccnc1.Cl (relative stereo) [Example 7, trans-Dimethyl-(2-pyridin-3-yl-cyclohexylmethyl)amine hydrochloride] | 95% | 22% | ED50 (mice): 2.55 mg/kg
24 | CN(C)CC1=C(c2cccnc2)CCC1.Cl [Example 28, Dimethyl-(2-pyridin-3-yl-cyclopent-1-enylmethyl)-amine hydrochloride] | 83% | 29% | Inhibition of the nociceptive behaviour versus control; % inhibition (mice; 10 mg/kg i.v., mice): 92.6%
25 | CN(C)CC1=C(c2ccc(Cl)nc2)CCCC1.Cl [Example 68, [2-(6-Chloro-pyridin-3-yl)-cyclohex-1-enylmethyl]-dimethyl-amine hydrochloride] | – | – | 5-HT re-uptake inhibition (10 μmol/l) (5-HT re-uptake; hydrochloride): 67%; NA re-uptake inhibition (10 μmol/l) (NA re-uptake; hydrochloride): 62%
26 | CN(C)CC1=C(c2cncc(O)c2)CCCC1 [Example 64, 5-(2-Dimethylaminomethyl-cyclohex-1-enyl)-pyridin-3-ol hydrochloride] | 68% | 6% | –
27 | CNCC1=C(c2cccnc2)CCCC1.Cl [Example 2, Methyl-(2-pyridin-3-yl-cyclohex-1-enylmethyl)amine hydrochloride] | 69% | 15% | Inhibition of the nociceptive behaviour versus control; % inhibition (mice; 21.5 mg/kg i.v., mice): 88%
28 | CN(C)CC1CCCCCC1(Cl)c1ccc(Cl)nc1 (stereo not drawn) [Example 13, [2-Chloro-2-(6-chloro-pyridin-3-yl)-cycloheptylmethyl]-dimethyl-amine hydrochloride] | 38% | 75% | –
29 | CN(C)C[C@@H]1CSCC[C@@]1(O)c1cccnc1.Cl (relative stereo) [Example 50, cis-3-Dimethylaminomethyl-4-pyridin-3-yl-tetrahydrothiopyran-4-ol hydrochloride] | – | – | 5-HT re-uptake inhibition (10 μmol/l) (5-HT re-uptake): 54%; NA re-uptake inhibition (10 μmol/l) (NA re-uptake): 29%; Inhibition of the nociceptive behaviour versus control; % inhibition (mice; 21.5 mg/kg i.v., mice): 37.0%
30 | COc1cncc(C2=C(CN(C)C)CCCC2)c1 [Example 54, [2-(5-Methoxy-pyridin-3-yl)-cyclohex-1-enylmethyl]-dimethyl-amine hydrochloride] | 85% | 17% | –
31 | CCCN(CCC)CC1=C(c2cccnc2)CCCC1.Cl [Example 65, Dipropyl-(2-pyridin-3-yl-cyclohex-1-enylmethyl)-amine hydrochloride] | 54% | -8% | Inhibition of the nociceptive behaviour versus control; % inhibition (mice; 4.64 mg/kg i.v., mice): −39.4%
32 | CN(C)CC1CCCCC1(Cl)c1cccnc1 (stereo not drawn) [Example 14, (2-Chloro-2-pyridin-3-yl-cyclohexylmethyl)-dimethyl-amine hydrochloride] | 73% | 27% | –
